From ChEMBL document CHEMBL5728685, “Macrocycle containing aminopyrazole and pyrimidine and pharmaceutical composition and use thereof” (2021)

Target: High affinity nerve growth factor receptor (Homo sapiens, UniProt P04629)
Test: Inhibition Assay: A testing platform for TrkAWT kinase activity was established based on Homogeneous Time-Resolved Fluorescence (HTRF) assay, and the activities of the compounds were tested using the platform. The compounds were subjected to five-fold gradient dilution for eight times with 100% DMSO with a starting concentration of 200 μM (9 concentrations in total). 4 μL of diluted sample for …

Chain of High affinity nerve growth factor receptor (P04629 whole entry): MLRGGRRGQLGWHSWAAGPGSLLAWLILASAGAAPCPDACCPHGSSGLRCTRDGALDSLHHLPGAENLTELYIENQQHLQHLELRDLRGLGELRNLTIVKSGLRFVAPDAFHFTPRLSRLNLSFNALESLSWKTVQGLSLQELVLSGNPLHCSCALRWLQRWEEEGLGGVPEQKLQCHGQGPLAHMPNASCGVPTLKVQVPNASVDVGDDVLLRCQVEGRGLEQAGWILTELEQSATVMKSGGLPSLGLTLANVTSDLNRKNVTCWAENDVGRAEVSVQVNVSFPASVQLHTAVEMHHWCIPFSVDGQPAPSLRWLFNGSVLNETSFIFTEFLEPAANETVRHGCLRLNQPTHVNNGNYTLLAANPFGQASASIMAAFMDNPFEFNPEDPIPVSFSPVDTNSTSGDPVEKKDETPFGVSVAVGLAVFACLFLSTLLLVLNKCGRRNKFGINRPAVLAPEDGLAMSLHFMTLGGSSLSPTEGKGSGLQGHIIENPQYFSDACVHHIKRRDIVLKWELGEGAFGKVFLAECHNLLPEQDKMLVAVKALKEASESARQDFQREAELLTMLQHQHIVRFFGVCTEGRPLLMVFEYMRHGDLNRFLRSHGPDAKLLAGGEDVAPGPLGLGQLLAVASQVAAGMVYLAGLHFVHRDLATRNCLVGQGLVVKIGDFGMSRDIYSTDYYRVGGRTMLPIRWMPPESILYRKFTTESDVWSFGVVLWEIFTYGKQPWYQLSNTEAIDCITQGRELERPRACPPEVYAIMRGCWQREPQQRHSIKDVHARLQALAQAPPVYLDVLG

Structure (SMILES) | IC50
C[C@@H]1CCc2ncc(F)cc2[C@H]2C[C@H](F)CN2c2ccn3nc(N)c(c3n2)C(=O)N1 | 0.23 nM
Nc1nn2ccc3nc2c1C(=O)NCCCn1cc(F)cc(c1=O)[C@H]1C[C@H](F)CN31 | 0.23 nM
Nc1nn2ccc3nc2c1C(=O)NCCOc1ncc(F)cc1C1CCCN31 (stereo not drawn) | 0.8 nM
